From PMC5310922, “A high-throughput phenotypic screen identifies clofazimine as a potential treatment for cryptosporidiosis” (PLoS Neglected Tropical Diseases, 2017)
Where two headings read alike, the source gives them in different places.

How the values were obtained:
C. parvum [1] = assay: Host cell 3-h pre-treatment, with or without wash, then C. parvum infection; type: cell-based, Cryptosporidium parvum; details: for EC50: Cryptosporidium parvum, host cells pretreated 3 h, C. parvum, 48 hpi
Method: A set of parallel wells were also treated and not washed prior to infection. 48 hpi, infected cells were imaged as described above, and EC50s for each compound pre- and post-wash were determined.

Cryptosporidium parvum = assay: C. parvum proliferation in HCT-8 cells, 48 h high-content imaging assay; type: cell-based, Cryptosporidium parvum (Iowa strain); details: for EC50: Cryptosporidium parvum, 48 h; for EC99 against C. parvum: concentration used in washout assay
C. parvum [2] = assay: Washout assay: 3-h treatments over the asexual life cycle of C. parvum; details: 3-h treatment then washout; even at 3×EC99
Method: We examined short, three-hour compound treatments of in vitro cultures, followed by compound washout, that covered the complete asexual life cycle, believed to be 13–15 h post invasion [36]. […] The treatment interval lasted 3 h before washout with fresh medium; infected cells were allowed to grow until 48 h post infection before fixation. […] As CFZ is very lipophilic, we sought to determine whether intracellular accumulation was affecting the strong inhibition across each time point.
Infected cells were treated in six 3-h increments over the course of 15 h (the presumed in vitro asexual lifecycle of C. parvum). HCT-8 cells were seeded (25 μL/well) into clear-bottomed 384-well plates (Greiner) at a density of 6.0×10^5 cells/mL (15,000 cells/well) in assay medium, and allowed to grow 24 h at 37°C with 5% CO2 in a humidified tissue culture incubator, covered with a custom metal lid (The Genomics Institute of the Novartis Research Foundation) to reduce evaporation. After 24 h, and 2 h before infecting with C. parvum oocysts (time -2 hpi), the treatment time course was initiated. […] DMSO was used as a negative control. Cell medium was removed from designated wells and replaced with medium containing either compound or DMSO. […] Plates were then spun at 150×g for 3 min, and kept at 37°C with 5% CO2 in a humidified tissue culture incubator during drug treatment intervals. At the end of each 3 h time point, infected cells were carefully washed three times with fresh, pre-warmed assay medium, and the next set of wells for the subsequent time point were treated. The final time point extended to 18 h, to cover re-invasion of merozoites into new HCT-8 cells. After the final compound treatment was washed off, infected cells were allowed to grow until 48 h post infection.

C. parvum [3] = assay: Mouse model of acute cryptosporidiosis, fecal oocyst shedding by flow cytometry; type: in vivo, C57BL/6 IFNγ-/- mice; details: for oocyst shedding, % of mock-dosed mice: 10 mg/kg oral on days 4, 5, 6 p.i., 10^4 oocysts, day 7 (within 24 h of end of treatment)
Method: Four week old female C57BL/6 IFNγ^-/- mice were purchased from the Jackson Laboratory and acclimated for four to ten days in specific pathogen-free conditions in the Health Sciences Biomedical Research Facility at the University of California, San Diego. Mice were provided water and chow (Teklad 2920X) ad libitum. […] Treatment regimens included 10 mg/kg, 100 mg/kg, and 0 mg/kg (vehicle only; n = 4 per group). Certain assays also involved gavage of characterized anticryptosporidial BKI-1294 (a kind gift from W. […] Oocysts were extracted via a modified discontinuous sucrose gradient technique. Briefly, […] solution was freshly prepared by dissolving 156.25 g sucrose and 2.5 mL phenol in 100 mL water. Fecal pellets were removed from storage then homogenized by vortexing and pipetting. […] Oocysts were floated from feces by centrifugation at 1,000×g for 20 min and collected with a pipet tip from the 1.064/1.103 specific gravity interface. Oocysts were rinsed once in cold PBS, pelleted by centrifugation at 15,000×g for 10 min, and resuspended in PBS. 50 μL aliquots were incubated for 30 min at room temperature with 0.25 μg fluorescein isothiocyanate-conjugated mouse anti-Cryptosporidium antibody (OW50-FITC, BioRad 2402-3007), then diluted to 200 μL with PBS. Samples were analyzed using a Guava EasyCyte flow cytometer and CytoSoft Data Acquisition and Analysis software (v5.3; Guava Technologies, Inc.), using a 100 s sampling interval, 0.59 μL/s flow rate, and logical gating of forward and side light scatter and OW50-FITC fluorescence signals. Each experimental run included positive and negative controls to calibrate region settings discriminating the oocyst-FITC population from background signals. Oocyst counts/mL sample values were exported to Excel (Microsoft Corp.) for normalization to counts/mg feces. Final graphing and statistical analyses of data were done using GraphPad Prism software (v6, GraphPad Software, Inc.). Two-way ANOVA with Dunnett's correction (Fig 4A) and unpaired multiple t-tests with False Discovery Rate approach (Fig 4B) were performed on % Vehicle data to determine significance between vehicle-treated and compound-treated mice.

Cryptosporidium = system: Cryptosporidium; parameters: method as in PMID 23878324; details: once per day for ten consecutive days at 100 mg/kg; cited from earlier work
[4] = parameters: method as in PMID 2656045; details: cited from earlier work
[5] = HCT-8 cells, read-out: EC50 against C. parvum
[6] = in HCT-8 cells, value (SD; n), read-out: C. parvum 48H Assay EC50 [µM] (SD; n)

Row | EC50 (Cryptosporidium parvum; [5]) | EC50 (Cryptosporidium parvum; [6]) | Structure (SMILES) | EC50 (C. parvum [1]; read-out: Post-wash EC50) | EC50 (C. parvum [1]; read-out: Pre-wash EC50) | EC99 against C. parvum (Cryptosporidium parvum) | inhibition of parasite growth at all time points other than 10–13 h post infection (C. parvum [2]) | oocyst shedding, % of mock-dosed mice (C. parvum [3]) | efficacy in mouse model of chronic cryptosporidiosis (Cryptosporidium) | drug half-life [4] | inhibition of C. parvum proliferation after compound removal by repeated washes (C. parvum [1]; host cell pre-treatment, dose-response) | fold more potent against C. parvum than C. hominis (Cryptosporidium parvum; C. parvum vs C. hominis EC50) | oocyst shedding, % of control group (C. parvum [3]; 10 mg/kg oral daily from day 4 p.i., within two days of treatment onset) | oocyst shedding (C. parvum [3]; once daily for three consecutive days or a single high dose) | oocyst shedding, % of mock-treated mice (C. parvum [3]; single 100 mg/kg oral dose on day 4, 1×10^6 oocysts, second day after treatment)
1 | 0.4 µM | 0.388 µM | CCOc1ccc2cc(-c3nn(CC4CCN(C)CC4)c4ncnc(N)c34)ccc2c1 [BKI-1294] | 955 nM | > 12500 nM | 2 µM | < 60% | 18.1% ± 2.2% | demonstrated efficacy | – | – | – | – | – | –
2 | 0.015 µM | 0.0149 µM | CC(C)/N=c1\cc2n(-c3ccc(Cl)cc3)c3ccccc3nc-2cc1Nc1ccc(Cl)cc1 [Clofazimine] | 7 nM | 23 nM | 0.03 µM | – | below 1% | – | ~ 70 days | near equipotent inhibition | ~ 20 fold | 2.5% ± 1.7% | reduction of oocyst shedding below the limit detectable by flow cytometry | 1.5% ± 0.4%
